Measured values from patent US12390446B2 (RESEARCH TRIANGLE INSTITUTE, priority 2017, dated 2025).
Read-outs that look alike come from different tables or passages of the source. One block for each molecule: values may come before it.

Columns and labels:
[1] = biological target: T1, NPFF2 receptor (human NPFFR2 in CHO-RD-HGA16 cells) (Homo sapiens, UniProt Q9Y5X5); assay: Calcium mobilization functional Ke assay, NPFF2; format: cell-based; conditions: for NPFF2 antagonist activity: at 10 μM; for Kb: read-out: NPFF2 Ke
T1 construct: expressed in transfected cells

[2] = biological target: T2, NPFF1 receptor (human NPFFR1 in CHO-RD-HGA16 cells) (Homo sapiens, UniProt Q9GZQ6); assay: Calcium mobilization functional Ke assay, NPFF1; format: cell-based; conditions: for NPFF1 antagonist activity: at 10 μM; for Kb: read-out: NPFF1 Ke; for type of antagonism in curve-shift assays: standard incubation, competitive profile with longer incubations
T2 construct: expressed in transfected cells

[3] = Table 1, mean ± SEM, apparent dissociation constant vs NPFF
[4] = Table 1, footnote c: pre-incubation of antagonist and test compound 45 min or 1 hr
[5] = Table 2, 4-(4-methylthio)benzylamino series, mean ± SEM
[6] = Table 2, footnote c: pre-incubation 1 hr

T1 sequence (Q9Y5X5 whole entry): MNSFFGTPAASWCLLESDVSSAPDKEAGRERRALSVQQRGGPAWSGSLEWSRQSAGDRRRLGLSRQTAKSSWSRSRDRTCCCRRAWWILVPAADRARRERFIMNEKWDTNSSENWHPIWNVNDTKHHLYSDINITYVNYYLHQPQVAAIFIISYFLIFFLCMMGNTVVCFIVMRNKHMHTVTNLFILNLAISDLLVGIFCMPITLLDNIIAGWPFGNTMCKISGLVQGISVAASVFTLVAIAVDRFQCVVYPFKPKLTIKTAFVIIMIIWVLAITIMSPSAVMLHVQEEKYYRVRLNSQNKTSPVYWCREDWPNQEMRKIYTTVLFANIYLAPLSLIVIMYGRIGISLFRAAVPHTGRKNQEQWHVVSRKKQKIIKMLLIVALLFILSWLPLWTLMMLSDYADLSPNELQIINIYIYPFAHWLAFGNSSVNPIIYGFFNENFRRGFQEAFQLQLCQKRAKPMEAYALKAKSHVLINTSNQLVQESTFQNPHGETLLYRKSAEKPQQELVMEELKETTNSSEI
T2 sequence (Q9GZQ6 whole entry): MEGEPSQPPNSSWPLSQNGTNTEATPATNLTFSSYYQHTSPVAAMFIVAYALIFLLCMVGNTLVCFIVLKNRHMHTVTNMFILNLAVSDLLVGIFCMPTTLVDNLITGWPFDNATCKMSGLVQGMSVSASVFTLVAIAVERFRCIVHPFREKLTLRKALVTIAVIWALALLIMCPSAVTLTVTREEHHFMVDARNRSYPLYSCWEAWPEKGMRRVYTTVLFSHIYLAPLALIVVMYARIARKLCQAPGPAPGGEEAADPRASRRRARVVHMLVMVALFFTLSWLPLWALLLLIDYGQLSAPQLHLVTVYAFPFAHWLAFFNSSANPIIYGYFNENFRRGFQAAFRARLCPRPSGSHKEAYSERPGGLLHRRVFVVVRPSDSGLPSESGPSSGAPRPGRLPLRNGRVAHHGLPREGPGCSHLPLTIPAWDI

SMILES: CCNC(=O)[C@@H]1C[C@H](NCc2ccc(SC)cc2)CN1Cc1ccccc1Cl [Compound 1]
NPFF2 Ke ([1]; calcium mobilization assay): 7,250 nM
NPFF1 Ke ([2]; calcium mobilization assay): 1,620 nM

SMILES: CNC(=O)[C@@H]1C[C@H](NCc2ccc(OC)cc2)CN1Cc1ccccc1Cl [Compound 10, (2S,4S)-1-[(2-Chlorophenyl)methyl]-4-{[(4-methoxyphenyl)methyl]amino}-N-methylpyrrolidine-2-carboxamide]
NPFF2 antagonist activity [1]: inactive
NPFF1 antagonist activity [2]: inactive

SMILES: CCNC(=O)[C@@H]1C[C@H](NCc2ccc(OC)cc2)CN1Cc1ccccc1Cl [Compound 11, (2S,4S)-1-[(2-Chlorophenyl)methyl]-N-ethyl-4-{[(4-methoxyphenyl)methyl]amino}pyrrolidine-2-carboxamide]
Kb [1, 3]: > 10 µM
NPFF2 antagonist activity [1]: inactive
Kb [2, 3]: > 10 µM
NPFF1 antagonist activity [2]: inactive
Kb ([2]; calcium mobilization assay): > 10 µM

SMILES: CCCNC(=O)[C@@H]1C[C@H](NCc2ccc(OC)cc2)CN1Cc1ccccc1Cl [Compound 12, (2S,4S)-1-[(2-Chlorophenyl)methyl]-4-{[(4-methoxyphenyl)methyl]amino}-N-propylpyrrolidine-2-carboxamide]
Kb [1, 3]: 9.08 µM
Kb [2, 3]: 2.6 µM
Kb ([2]; calcium mobilization assay): 9.08 µM

SMILES: CCCCNC(=O)[C@@H]1C[C@H](NCc2ccc(OC)cc2)CN1Cc1ccccc1Cl [Compound 13, (2S,4S)—N-Butyl-1-[(2-chlorophenyl)methyl]-4-{[(4-methoxyphenyl)methyl]amino}pyrrolidine-2-carboxamide]
Kb [2, 3]: 1.24 µM

SMILES: CCC(C)NC(=O)[C@@H]1C[C@H](NCc2ccc(OC)cc2)CN1Cc1ccccc1Cl (stereo partly drawn) [Compound 14, (2S,4S)—N-(Butan-2-yl)-1-[(2-chlorophenyl)methyl]-4-{[(4-methoxyphenyl)methyl]amino}pyrrolidine-2-carboxamide]
Kb [1, 3]: 3.68 µM
Kb [2, 3]: 1.5 µM

SMILES: COc1ccc(CN[C@H]2C[C@@H](C(=O)NC(C)(C)C)N(Cc3ccccc3Cl)C2)cc1 [Compound 15, (2S,4S)—N-tert-Butyl-1-[(2-chlorophenyl)methyl]-4-{[(4-methoxyphenyl)methyl]amino}pyrrolidine-2-carboxamide]
Kb [1, 4]: 1.26 µM
Kb [2, 3]: 1.88 µM

SMILES: COc1ccc(CN[C@H]2C[C@@H](C(=O)NCCC(C)C)N(Cc3ccccc3Cl)C2)cc1 [Compound 17, (2S,4S)-1-[(2-Chlorophenyl)methyl]-4-{[(4-methoxyphenyl)methyl]amino}-N-(3-methylbutyl)pyrrolidine-2-carboxamide]
Kb [1, 4]: 1.54 µM
Kb [2, 3]: 1.32 µM

SMILES: CCCCCCNC(=O)[C@@H]1C[C@H](NCc2ccc(OC)cc2)CN1Cc1ccccc1Cl [Compound 18, (2S,4S)-1-[(2-Chlorophenyl)methyl]-4-{[(4-methoxyphenyl)methyl]amino}-N-hexylpyrrolidine-2-carboxamide]
Kb [1, 4]: 1.49 µM
Kb [2, 3]: 0.82 ± 0.08 µM

SMILES: CCCCCCCCCCNC(=O)[C@@H]1C[C@H](NCc2ccc(OC)cc2)CN1Cc1ccccc1Cl [Compound 19, (2S,4S)-1-[(2-Chlorophenyl)methyl]-N-decyl-4-{[(4-methoxyphenyl)methyl]amino}pyrrolidine-2-carboxamide]
Kb [2, 4]: > 10 µM

SMILES: COc1ccc(CN[C@H]2C[C@@H](C(=O)NCCN3CCOCC3)N(Cc3ccccc3Cl)C2)cc1 [Compound 20, (2S,4S)-1-[(2-Chlorophenyl)methyl]-4-{[(4-methoxyphenyl)methyl]amino}-N-[2-(morpholin-4-yl)ethyl]pyrrolidine-2-carboxamide]
Kb [2, 3]: 1.96 µM

SMILES: COc1ccc(CN[C@H]2C[C@@H](C(=O)NCCC3CCCCC3)N(Cc3ccccc3Cl)C2)cc1 [Compound 21, (2S,4S)-1-[(2-Chlorophenyl)methyl]-N-(2-cyclohexylethyl)-4-{[(4-methoxyphenyl)methyl]amino}pyrrolidine-2-carboxamide]
Kb [1, 4]: 1.22 µM
Kb [2, 3]: 1.12 µM

SMILES: COc1ccc(CN[C@H]2C[C@@H](C(=O)NCc3ccccc3)N(Cc3ccccc3Cl)C2)cc1 [Compound 23, (2S,4S)—N-Benzyl-1-[(2-chlorophenyl)methyl]-4-{[(4-methoxyphenyl)methyl]amino}pyrrolidine-2-carboxamide]
Kb [1, 4]: 2.01 µM
Kb [2, 4]: 0.78 ± 0.08 µM
type of antagonism in curve-shift assays [2]: insurmountable antagonism

SMILES: COc1ccc(CN[C@H]2C[C@@H](C(=O)NCCCc3ccccc3)N(Cc3ccccc3Cl)C2)cc1 [Compound 25, (2S,4S)-1-[(2-Chlorophenyl)methyl]-4-{[(4-methoxyphenyl)methyl]amino}-N-(3-phenylpropyl)pyrrolidine-2-carboxamide]
Kb [1, 4]: 2.6 µM
Kb [2]: > 10 µM

Now from value to molecule:

Kb [1, 3]: 9.88 µM
Kb [2, 3]: 1.13 µM
NPFF1 Ke ([2]; calcium mobilization assay): 1,130 nM
SMILES: COc1ccc(CN[C@H]2C[C@@H](C(=O)NCCc3ccc(F)cc3)N(Cc3ccccc3Cl)C2)cc1 [Compound 35, (2S,4S)-1-[(2-Chlorophenyl)methyl]-N-[2-(4-fluorophenyl)ethyl]-4-{[(4-methoxyphenyl)methyl]amino}pyrrolidine-2-carboxamide]

Kb [2, 3]: 1.67 µM
NPFF1 Ke ([2]; calcium mobilization assay): 1,670 nM
SMILES: COc1ccc(CN[C@H]2C[C@@H](C(=O)NCCc3ccc(C(F)(F)F)cc3)N(Cc3ccccc3Cl)C2)cc1 [Compound 36, (2S,4S)-1-[(2-Chlorophenyl)methyl]-4-{[(4-methoxyphenyl)methyl]amino}-N-{2-[4-(trifluoromethyl)phenyl]ethyl}pyrrolidine-2-carboxamide]

Kb [2, 3]: 1.82 µM
NPFF1 Ke ([2]; calcium mobilization assay): 1,820 nM
SMILES: COc1ccc(CN[C@H]2C[C@@H](C(=O)NCCc3ccncc3)N(Cc3ccccc3Cl)C2)cc1 [Compound 37, (2S,4S)-1-[(2-Chlorophenyl)methyl]-4-{[(4-methoxyphenyl)methyl]amino}-N-[2-(pyridin-4-yl)ethyl]pyrrolidine-2-carboxamide]

Kb [2, 3]: 1.88 µM
SMILES: COc1ccc(CN[C@H]2C[C@@H](C(=O)NCCc3ccc(S(C)(=O)=O)cc3)N(Cc3ccccc3Cl)C2)cc1 [Compound 39, (2S,4S)-1-[(2-Chlorophenyl)methyl]-N-[2-(4-methanesulfonylphenyl)ethyl]-4-{[(4-methoxyphenyl)methyl]amino}pyrrolidine-2-carboxamide]

Kb [1, 3]: 4.93 µM
Kb [2, 3]: 2.9 µM
SMILES: CCN(CC)C(=O)[C@@H]1C[C@H](NCc2ccc(OC)cc2)CN1Cc1ccccc1Cl [Compound 40, (2S,4S)-1-[(2-Chlorophenyl)methyl]-N,N-diethyl-4-{[(4-methoxyphenyl)methyl]amino}pyrrolidine-2-carboxamide]

Kb [1, 4]: 1.73 µM
Kb [2, 4]: 0.88 ± 0.12 µM
Kb ([2]; calcium mobilization assay): 0.88 µM
type of antagonism in curve-shift assays [2]: insurmountable antagonism
SMILES: CCCN(CCC)C(=O)[C@@H]1C[C@H](NCc2ccc(OC)cc2)CN1Cc1ccccc1Cl [Compound 41, (2S,4S)-1-[(2-Chlorophenyl)methyl]-4-{[(4-methoxyphenyl)methyl]amino}-N,N-dipropylpyrrolidine-2-carboxamide]

Kb [1, 4]: 2.08 µM
Kb [2, 4]: 1.33 µM
NPFF1 Ke ([2]; calcium mobilization assay): 1,330 nM
type of antagonism in curve-shift assays [2]: insurmountable antagonism
SMILES: COc1ccc(CN[C@H]2C[C@@H](C(=O)N3CCN(c4ccccc4)CC3)N(Cc3ccccc3Cl)C2)cc1 [Compound 42, (3S,5S)-1-[(2-Chlorophenyl)methyl]-N-[(4-methoxyphenyl)methyl]-5-(4-phenylpiperazine-1-carbonyl)pyrrolidin-3-amine]

Kb [1, 5]: 5.6 µM
Kb [2, 5]: 1.08 µM
SMILES: CCNC(=O)[C@@H]1C[C@H](NCc2ccc(SC)cc2)CN1Cc1ccccc1Cl [Compound 43, (2S,4S)-1-[(2-Chlorophenyl)methyl]-N-ethyl-4-{[(4-(methylthio)phenyl)methyl]amino}pyrrolidine-2-carboxamide]

Kb [1, 6]: 0.97 ± 0.03 µM
Kb [2, 5]: 0.36 ± 0.05 µM
Kb ([2]; calcium mobilization assay): 0.36 µM
SMILES: CCCCCNC(=O)[C@@H]1C[C@H](NCc2ccc(SC)cc2)CN1Cc1ccccc1Cl [Compound 44, (2S,4S)-1-[(2-Chlorophenyl)methyl]-4-{[(4-(methylthio)phenyl)methyl]amino}-N-pentylpyrrolidine-2-carboxamide]

Kb [1, 5]: 3.7 µM
Kb [2, 5]: 0.53 ± 0.08 µM
Kb ([2]; calcium mobilization assay): 0.53 µM
SMILES: CSc1ccc(CN[C@H]2C[C@@H](C(=O)NCCc3ccccc3)N(Cc3ccccc3Cl)C2)cc1 [Compound 45, (2S,4S)-1-[(2-Chlorophenyl)methyl]-4-{[(4-(methylthio)phenyl)methyl]amino}-N-(2-phenylethyl)pyrrolidine-2-carboxamide]

Kb [1, 6]: 0.88 ± 0.16 µM
Kb [2, 5]: 0.47 ± 0.06 µM
Kb ([2]; calcium mobilization assay): 0.47 µM
SMILES: CSc1ccc(CN[C@H]2C[C@@H](C(=O)NCCc3ccc(F)c(F)c3)N(Cc3ccccc3Cl)C2)cc1 [Compound 48, (2S,4S)-1-[(2-Chlorophenyl)methyl]-N-[2-(3,4-difluorophenyl)ethyl]-4-{[(4-(methylthio)phenyl)methyl]amino}pyrrolidine-2-carboxamide]

Kb ([1]; Table 3, mean ± SEM): > 10 µM
Kb ([2]; Table 3, mean ± SEM): 5.16 µM
SMILES: CCCN[C@H]1C[C@@H](C(=O)NCCc2ccc([N+](=O)[O-])cc2)N(Cc2ccccc2Cl)C1 [Compound 52]

Kb ([1]; Table 3, mean ± SEM): > 10 µM
Kb ([2]; Table 3, mean ± SEM): 6.12 µM
SMILES: CCCCN[C@H]1C[C@@H](C(=O)NCCc2ccc([N+](=O)[O-])cc2)N(Cc2ccccc2Cl)C1 [Compound 53, (2S,4S)-4-(Butylamino)-1-[(2-chlorophenyl)methyl]-N-[2-(4-nitrophenyl)ethyl]pyrrolidine-2-carboxamide]

Kb ([1]; Table 3, mean ± SEM): > 10 µM
Kb ([2]; Table 3, mean ± SEM): 2.48 µM
SMILES: CCCCCN[C@H]1C[C@@H](C(=O)NCCc2ccc([N+](=O)[O-])cc2)N(Cc2ccccc2Cl)C1 [Compound 54, (2S,4S)-1-[(2-Chlorophenyl)methyl]-N-[2-(4-nitrophenyl)ethyl]-4-(pentylamino) pyrrolidine-2-carboxamide]
